# How the values were obtained:
# Format in all cases: cell-based
# AXL = AXL (Homo sapiens (Human), UniProt P30530); assay: AXL autophosphorylation ELISA in A-172 cells; conditions: cellular, Gas6-stimulated, phospho-AXL ELISA
# Summary of the method: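 A-172 glioblastoma cells, serum-starved 24 h, got 8-point compound dilutions (0.3% DMSO) for 1 h, then 1 μg/mL human Gas6 for 15 min. Phospho-AXL in lysates was quantified by ELISA against a standard, normalized between DMSO and reference-inhibitor controls; IC50 by 4-parameter logistic fit.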
# Mer = Mer (Homo sapiens (Human), UniProt Q12866); assay: Mer autophosphorylation ELISA in transient transfected 293A cells; conditions: cellular, MERTK-transfected 293A cells, phospho-Mer ELISA
# KDR = KDR (Homo sapiens (Human), UniProt P35968); assay: KDR autophosphorylation ELISA in HUVEC cells; conditions: cellular, VEGF165-stimulated, phospho-KDR ELISA
# Summary of the method: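 Serum-starved (24 h) HUVECs were pre-treated with compound (8-point dose curve, 0.3% DMSO final) for 1 h, then stimulated with 100 ng/mL human VEGF165 for 5 min. Lysate phospho-KDR was quantified by ELISA against a phospho-KDR standard. IC50 came from a 4-parameter logistic fit, normalized to stimulated-DMSO (100%) and unstimulated (0%) controls.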
# Mer, sequence (Q12866 21-999): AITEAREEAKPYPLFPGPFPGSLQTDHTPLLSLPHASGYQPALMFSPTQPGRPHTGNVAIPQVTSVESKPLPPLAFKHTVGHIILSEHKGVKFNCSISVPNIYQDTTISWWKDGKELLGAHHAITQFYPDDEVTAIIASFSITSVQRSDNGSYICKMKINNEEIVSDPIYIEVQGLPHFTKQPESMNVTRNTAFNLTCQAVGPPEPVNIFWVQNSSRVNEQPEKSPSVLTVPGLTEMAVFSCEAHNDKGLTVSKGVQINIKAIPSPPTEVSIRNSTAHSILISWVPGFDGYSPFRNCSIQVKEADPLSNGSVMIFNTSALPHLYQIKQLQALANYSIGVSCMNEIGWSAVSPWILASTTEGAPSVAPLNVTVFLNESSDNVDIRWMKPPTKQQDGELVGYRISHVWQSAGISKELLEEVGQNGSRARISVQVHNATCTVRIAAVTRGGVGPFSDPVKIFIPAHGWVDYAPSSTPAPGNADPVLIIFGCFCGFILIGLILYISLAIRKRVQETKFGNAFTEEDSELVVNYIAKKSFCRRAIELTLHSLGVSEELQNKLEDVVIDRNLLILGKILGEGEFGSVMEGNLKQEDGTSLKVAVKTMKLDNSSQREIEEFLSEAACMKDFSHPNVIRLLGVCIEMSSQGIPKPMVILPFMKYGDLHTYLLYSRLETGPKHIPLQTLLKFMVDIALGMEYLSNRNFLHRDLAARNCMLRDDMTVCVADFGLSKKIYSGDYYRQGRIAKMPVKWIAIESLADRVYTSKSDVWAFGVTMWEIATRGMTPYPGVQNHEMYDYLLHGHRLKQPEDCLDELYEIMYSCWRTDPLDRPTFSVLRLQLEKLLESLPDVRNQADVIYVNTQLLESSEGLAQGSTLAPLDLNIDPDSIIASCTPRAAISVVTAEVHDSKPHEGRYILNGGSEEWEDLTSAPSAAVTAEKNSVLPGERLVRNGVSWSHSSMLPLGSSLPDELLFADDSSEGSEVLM
# AXL, sequence (P30530 26-894): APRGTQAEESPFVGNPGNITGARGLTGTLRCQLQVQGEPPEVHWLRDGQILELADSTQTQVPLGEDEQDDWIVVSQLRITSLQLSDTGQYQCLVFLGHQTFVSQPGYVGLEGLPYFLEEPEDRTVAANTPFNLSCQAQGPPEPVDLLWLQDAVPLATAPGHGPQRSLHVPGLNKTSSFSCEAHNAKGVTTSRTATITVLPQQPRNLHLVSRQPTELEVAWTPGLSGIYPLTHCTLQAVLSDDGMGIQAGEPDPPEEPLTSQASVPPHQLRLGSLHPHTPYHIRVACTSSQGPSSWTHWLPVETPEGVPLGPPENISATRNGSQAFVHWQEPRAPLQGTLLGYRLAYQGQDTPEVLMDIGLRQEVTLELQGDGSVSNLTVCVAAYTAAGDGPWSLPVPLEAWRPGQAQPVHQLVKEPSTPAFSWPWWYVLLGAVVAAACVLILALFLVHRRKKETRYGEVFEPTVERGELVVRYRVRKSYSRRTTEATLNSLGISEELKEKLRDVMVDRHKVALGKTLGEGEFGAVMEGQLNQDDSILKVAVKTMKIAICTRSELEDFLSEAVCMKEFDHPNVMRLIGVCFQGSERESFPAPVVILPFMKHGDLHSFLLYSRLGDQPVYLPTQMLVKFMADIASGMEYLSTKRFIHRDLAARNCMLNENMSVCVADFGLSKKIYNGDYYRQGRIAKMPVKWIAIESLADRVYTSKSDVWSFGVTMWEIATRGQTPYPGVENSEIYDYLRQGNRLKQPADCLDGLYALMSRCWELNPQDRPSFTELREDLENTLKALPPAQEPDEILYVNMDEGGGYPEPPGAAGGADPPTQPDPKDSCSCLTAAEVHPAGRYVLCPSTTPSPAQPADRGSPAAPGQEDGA
# KDR, sequence (P35968 20-1356): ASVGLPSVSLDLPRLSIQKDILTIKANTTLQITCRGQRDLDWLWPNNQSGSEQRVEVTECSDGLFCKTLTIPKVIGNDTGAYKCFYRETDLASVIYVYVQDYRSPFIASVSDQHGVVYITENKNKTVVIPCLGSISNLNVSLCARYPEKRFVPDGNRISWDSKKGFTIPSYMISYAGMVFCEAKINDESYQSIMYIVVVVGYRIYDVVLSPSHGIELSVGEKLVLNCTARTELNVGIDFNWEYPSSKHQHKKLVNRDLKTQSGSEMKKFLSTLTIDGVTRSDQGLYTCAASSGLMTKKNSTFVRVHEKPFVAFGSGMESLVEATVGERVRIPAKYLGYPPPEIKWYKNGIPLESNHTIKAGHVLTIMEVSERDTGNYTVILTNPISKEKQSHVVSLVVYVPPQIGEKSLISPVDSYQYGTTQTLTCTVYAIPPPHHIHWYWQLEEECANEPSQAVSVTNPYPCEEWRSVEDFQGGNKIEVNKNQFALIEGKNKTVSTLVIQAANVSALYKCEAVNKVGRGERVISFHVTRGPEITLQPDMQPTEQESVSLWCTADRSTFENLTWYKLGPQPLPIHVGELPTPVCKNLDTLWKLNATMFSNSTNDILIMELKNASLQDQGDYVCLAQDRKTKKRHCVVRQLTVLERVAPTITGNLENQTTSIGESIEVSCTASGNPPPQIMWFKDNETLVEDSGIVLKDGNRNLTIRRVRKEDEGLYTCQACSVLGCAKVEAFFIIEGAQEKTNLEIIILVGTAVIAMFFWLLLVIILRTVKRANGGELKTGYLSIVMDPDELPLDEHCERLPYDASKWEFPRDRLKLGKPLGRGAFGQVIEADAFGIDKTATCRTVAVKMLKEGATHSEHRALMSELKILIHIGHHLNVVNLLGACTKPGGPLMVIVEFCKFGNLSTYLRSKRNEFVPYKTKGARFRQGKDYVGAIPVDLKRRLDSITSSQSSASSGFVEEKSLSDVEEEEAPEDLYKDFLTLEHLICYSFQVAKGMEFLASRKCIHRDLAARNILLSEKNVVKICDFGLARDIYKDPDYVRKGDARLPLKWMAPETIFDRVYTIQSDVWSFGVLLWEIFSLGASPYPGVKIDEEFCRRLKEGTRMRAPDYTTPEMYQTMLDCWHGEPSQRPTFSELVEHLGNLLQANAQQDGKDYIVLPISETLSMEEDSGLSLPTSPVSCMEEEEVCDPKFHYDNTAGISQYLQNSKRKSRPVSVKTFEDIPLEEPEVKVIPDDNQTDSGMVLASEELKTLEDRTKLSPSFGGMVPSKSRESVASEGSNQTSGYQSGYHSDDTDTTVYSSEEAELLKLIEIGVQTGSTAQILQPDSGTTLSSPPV
Structure (SMILES),IC50 (AXL),IC50 (Mer),IC50 (KDR)
"COc1cc2c(Oc3ccc(NC(=O)C4(C(=O)Nc5ccc(F)cc5)CC4)cc3)ncnc2cn1 [Compound 91, 1-N′-(4-fluorophenyl)-1-N-[4-(6-methoxypyrido[3,4-d]pyrimidin-4-yl)oxyphenyl]cyclopropane-1,1-dicarboxamide]",> 300 nM,,> 300 nM
"COc1cc2ncnc(Oc3ccc(NC(=O)C4(C(=O)Nc5ccc(F)cc5)CC4)cc3)c2cn1 [Compound 104, 1-N′-(4-fluorophenyl)-1-N-[4-(7-methoxypyrido[4,3-d]pyrimidin-4-yl)oxy-phenyl]cyclopropane-1,1-dicarboxamide]",> 300 nM,,> 300 nM
"COc1cc2ncnc(Oc3ccc(NC(=O)C4(C(=O)Nc5ccc(F)cc5)CC4)cc3)c2cc1C(=O)NC1COC1 [Compound 115, 1-N′-(4-fluorophenyl)-1-N-[4-[7-methoxy-6-(oxetan-3-ylcarbamoyl)quinazolin-4-yl]oxyphenyl]cyclopropane-1,1-dicarboxamide]",> 300 nM,,10 to 100 nM
"COc1cc2ncnc(Oc3ccc(NC(=O)C4(C(=O)Nc5ccc(F)cc5)CC4)cc3)c2cc1C(=O)NC1CC1 [Compound 116, 1-N-[4-[6-(cyclopropylcarbamoyl)-7-methoxyquinazolin-4-yl]oxyphenyl]-1-N′-(4-fluorophenyl)cyclopropane-1,1-dicarboxamide]",100 to 300 nM,,10 to 100 nM
"COc1cc2ncnc(Oc3ccc(NC(=O)C4(C(=O)Nc5ccc(F)cc5)CC4)cc3)c2cc1C(=O)NC[C@H]1CCCN1C(=O)OC(C)(C)C [Compound 119, tert-butyl (2R)-2-[[[4-[4-[[1-[(4-fluoro-phenyl)carbamoyl]cyclo-propane-carbonyl]amino]phenoxy]-7-methoxyquinazoline-6-carbonyl]amino]methyl]pyr-rolidine-1-carboxylate]",100 to 300 nM,,10 to 100 nM
"COc1cc2ncnc(Oc3ccc(NC(=O)C4(C(=O)Nc5ccc(F)cc5)CC4)cc3)c2cc1C(=O)NC[C@@H]1CCCN1C(=O)OC(C)(C)C [Compound 120, tert-butyl (2S)-2-[[[4-[4-[[1-[(4-fluoro-phenyl)carbamoyl]cyclo-propane-carbonyl]amino]phenoxy]-7-methoxyquinazoline-6-carbonyl]amino]methyl]pyr-rolidine-1-carboxylate]",> 300 nM,,100 to 300 nM
"COc1cc2ncnc(Oc3ccc(NC(=O)C4(C(=O)Nc5ccc(F)cc5)CC4)cc3)c2cc1C(=O)NC[C@@H]1CCCN1 [Compound 122, 1-N′-(4-fluorophenyl)-1-N-[4-[7-methoxy-6-[[(2S)-pyrrolidin-2-yl]methyl-carbamoyl]quinazolin-4-yl]oxyphenyl]cyclopropane-1,1-dicarboxamide]",10 to 100 nM,,> 300 nM
"COc1cc2nccc(Oc3ccc(NC(=O)C4(C(=O)Nc5ccc(F)cc5)CC4)cc3Cl)c2nc1OC [Compound 141, 1-N′-[3-chloro-4-[(6,7-dimethoxy-1,5-naphthyridin-4-yl)oxy]phenyl]-1-N-(4-fluorophenyl)cyclo-propane-1,1-dicarboxamide]",10 to 100 nM,,≤ 10 nM

# Results, then the compound that gave them:
IC50 (AXL),IC50 (Mer),IC50 (KDR),Structure (SMILES)
10 to 100 nM,10 to 100 nM,10 to 100 nM,"COc1cc2ncnc(Oc3ccc(NC(=O)C4(C(=O)Nc5ccc(F)cc5)CC4)cc3)c2nc1OC [Compound 28, 1-N-[4-(6,7-dimethoxy-pyrido[3,2-d]pyrimidin-4-yl)oxyphenyl]-1-N′-(4-fluorophenyl)cyclo-propane-1,1-dicarboxamide]"
10 to 100 nM,,≤ 10 nM,"COc1cc2ncnc(Oc3ccc(NC(=O)C4(C(=O)Nc5ccc(F)cc5)CC4)cc3Cl)c2nc1OC [Compound 29, 1-N′-[3-chloro-4-(6,7-dimethoxypyrido[3,2-d]pyrimidin-4-yl)oxyphenyl]-1-N-(4-fluorophenyl)cyclo-propane-1,1-dicarboxamide]"
≤ 10 nM,≤ 10 nM,≤ 10 nM,"COc1cc2ncnc(Oc3ccc(NC(=O)C4(C(=O)Nc5ccc(F)cc5)CC4)cc3F)c2nc1OC [Compound 30, 1-N′-[4-(6,7-dimethoxypyrido[3,2-d]pyrimidin-4-yl)oxy-3-fluorophenyl]-1-N-(4-fluorophenyl)cyclopropane-1,1-dicarboxamide]"
≤ 10 nM,10 to 100 nM,≤ 10 nM,"COc1nc2c(Oc3ccc(NC(=O)C4(C(=O)Nc5ccc(F)cc5)CC4)cc3)ncnc2cc1OCCCN1CCOCC1 [Compound 65, 1-N′-(4-fluorophenyl)-1-N-[4-[6-methoxy-7-(3-morpholin-4-ylpropoxy)pyrido[3,2-d]pyrimidin-4-yl]oxyphenyl]cyclopropane-1,1-dicarboxamide]"
≤ 10 nM,,≤ 10 nM,"COc1nc2c(Oc3ccc(NC(=O)C4(C(=O)Nc5ccc(F)cc5)CC4)cc3Cl)ncnc2cc1OCCCN1CCOCC1 [Compound 66, 1-N′-[3-chloro-4-[6-methoxy-7-(3-morpholin-4-ylpropoxy)pyrido[3,2-d]pyrimidin-4-yl]oxyphenyl]-1-N-(4-fluorophenyl)cyclo-propane-1,1-dicarboxamide]"
≤ 10 nM,≤ 10 nM,≤ 10 nM,"COc1nc2c(Oc3ccc(NC(=O)C4(C(=O)Nc5ccc(F)cc5)CC4)cc3F)ncnc2cc1OCCCN1CCOCC1 [Compound 67, 1-N′-[3-fluoro-4-[6-methoxy-7-(3-morpholin-4-ylpropoxy)pyrido[3,2-d]pyrimidin-4-yl]oxyphenyl]-1-N-(4-fluorophenyl)cyclo-propane-1,1-dicarboxamide]"
≤ 10 nM,,10 to 100 nM,"COc1cc2ncnc(Oc3ccc(NC(=O)C4(C(=O)Nc5ccc(F)cc5)CC4)cc3)c2cc1C(N)=O [Compound 117, 1-N-[4-(6-carbamoyl-7-methoxyquinazolin-4-yl)oxyphenyl]-1-N′-(4-fluorophenyl)cyclopropane-1,1-dicarboxamide]"
10 to 100 nM,10 to 100 nM,100 to 300 nM,"COc1cc2ncnc(Oc3ccc(NC(=O)C4(C(=O)Nc5ccc(F)cc5)CC4)cc3)c2cc1C(=O)NCCN1CCCC1 [Compound 118, 1-N′-(4-fluorophenyl)-1-N-[4-[7-methoxy-6-(2-pyrrolidin-1-ylethyl-carbamoyl)quinazolin-4-yl]oxyphenyl]cyclopropane-1,1-dicarboxamide]"
10 to 100 nM,,100 to 300 nM,"COc1cc2ncnc(Oc3ccc(NC(=O)C4(C(=O)Nc5ccc(F)cc5)CC4)cc3)c2cc1C(=O)NC[C@H]1CCCN1 [Compound 121, 1-N′-(4-fluorophenyl)-1-N-[4-[7-methoxy-6-[[(2R)-pyrrolidin-2-yl]methyl-carbamoyl]quinazolin-4-yl]oxyphenyl]cyclopropane-1,1-dicarboxamide]"
≤ 10 nM,≤ 10 nM,≤ 10 nM,"COc1cc2nccc(Oc3ccc(NC(=O)C4(C(=O)Nc5ccc(F)cc5)CC4)cc3)c2nc1OC [Compound 139, 1-N-[4-[(6,7-dimethoxy-1,5-naphthyridin-4-yl)oxy]phenyl]-1-N′-(4-fluorophenyl)cyclo-propane-1,1-dicarboxamide]"
≤ 10 nM,≤ 10 nM,≤ 10 nM,"COc1cc2nccc(Oc3ccc(NC(=O)C4(C(=O)Nc5ccc(F)cc5)CC4)cc3F)c2nc1OC [Compound 140, 1-N′-[4-[(6,7-dimethoxy-1,5-naphthyridin-4-yl)oxy]-3-fluorophenyl]-1-N-(4-fluorophenyl)cyclopropane-1,1-dicarboxamide]"

# — US11708367B2, “Compounds for the treatment of kinase-dependent disorders” (Exelixis, Inc., priority 2018, dated 2023)
